Where a name gives a salt, the structure may show the parent alone.

Data set [1] has as its target T1, HEV helicase (Hepatitis E virus genotype 1, UniProt P33424).
T1 construct: The HEV helicase (735 bp) was amplified from the HEV (genotype 1; AF444002.1) cDNA clone; made in house; host or cells: E. coli BL21(DE3), pET28a; solubilised from inclusion bodies with NLS
As to the kind of experiment: biochemical. Type of data set: biochemical. The text has this:
(§1) The HEV helicase (735 bp) was amplified from the HEV (genotype 1; accession no. AF444002.1) cDNA clone pSK-HEV-2[23]^,[25] using the forward and reverse primers sets (5′agcc|atatgggttgccgtgtgacc3′ and 5′gtgc|tcgagttaaaagaagttgttcac3′). Following standard laboratory procedures, the amplified gene was cloned in the pET28a vector between NdeI and Xho I restriction sites. The cloning was verified using colony PCR using Nde I and Xho I (New England BioLabs, Ipswich, MA) double digestion and DNA sequencing. The recombinant plasmid was further transformed to BL21(DE3) using the routine protocol for expressing HEV helicase. The transformed recombinant BL21 cells were expanded until the culture’s optical density (OD600 nm) reached 0.6 before being induced with 0.4 mM IPTG (Sigma Aldrich, St. Louis, MO) at 26 °C for 4 h. The protein solubilisation was carried out as described previously. The Immobilised Metal Affinity Chromatography (IMAC) was used to purify the solubilised protein, and the protein was eluted in a buffer containing 10 mM Tris–Cl (pH 8.0), (Sigma Aldrich), 100 mM NaCl (Sigma Aldrich), 250 mM imidazole, and 0.1% N-lauryl Sarcosine (NLS; Sigma Aldrich). Further, the buffer of purified protein was exchanged with 10 mM Tris–Cl (pH 8.0), 100 mM NaCl, and 0.08% NLS before proceeding with enzyme assays.
The NTPase activity of the HEV helicase enzyme was performed using a colorimetric-based Malachite green test[27]. The assay followed the manufacturer’s instructions The malachite green assay was performed as per the manufacturer’s protocol (Sigma Aldrich) cat no MAK307-1KT. The assay operates on the phosphate release from the reaction between malachite green and molybdate (AM/MG reagent) as the basis for complexation. […] The absorbance was measured on plate reader and a standard curve was generated using known concentrations of phosphate ranging from 0 to 44 uM to correlate absorbance with released phosphate concentration. The absorbance was plotted on Y-axis against the phosphate concentration on X-axis, and a straight-line equation (Y = 0.02182 * X + 0.04158) was determined using linear regression in GraphPad Prism version 9.0 (Boston, MA). The graphs were plotted as a function of the concentration of phosphate released. The effects of pH, temperature, enzyme concentration, and substrate concentration on helicase enzyme activity were studied to optimise enzyme activity.
Based on their docking score, hydrogen bonds, and protein–ligand interaction, the five selected compounds from virtual screening were tested for their ability to suppress NTPase activity. The putative inhibitors’ concentrations ranged from 0 to 10 µM during the optimisation-focused inhibition tests on the purified protein’s NTPase activity. […] The working reagent was added after the reaction mixture had been incubated at RT for 10 min, and the absorbance was measured at 600 nm.
(§2) All the experiments were performed in triplicates, and the graphs were plotted using GraphPad Prism software (Boston, MA).

Data set [2] deals with T1, HEV helicase. Put plainly: Double-stranded RNA unwinding activity / inhibition assay (fluorescence). Type of data set: biochemical. Particulars: dsRNA unwinding, purified helicase, RT.
Text: as §1, §2

The subject of data set [3] is HEV replication (ORF2 expression). Put plainly: microbe, parasite or virus in culture. Type of data set: cell-based, Hepatitis E Virus. The text has this:
(§3) For transfection, pSHEV-3 (cDNA clone of HEV genotype 3; accession no. AY575859.1) was linearised using Xba I (New England BioLabs). The helicase region of GT1 and GT3 share greater than 90% sequence homology Sub-genomic HEV carrying luciferase gene (accession number JQ679013) was linearised for replicon assay with MluI. The linearised DNA was subjected to in vitro transcription, as mentioned previously[26]^,[36], and the RNA was transfected in Huh7 cells using Lipofectamine 3000 (Invitrogen, Carlsbad, CA). Briefly, a day before transfection, approximately 0.8 × 10^6 cells were seeded in each well of a six-well plate, and for HEV replicon assay, ∼5–7 × 10[3] cells were seeded in each well of 96 plate. After 24 h, the media was removed, the cells were washed twice with Opti-MEM media (Gibco™, Grand Island, NY), and the transfection mixture was prepared as mentioned earlier[25]^,[26]. The cells were incubated with a transfection mixture for 6–8 h at 37 °C.
For IFA, the cells were grown on a 96-well plate and transfected using Lipofectamine, as mentioned above. […] The cells were incubated for 4–5 d, and subsequently, the media was removed, and the cells were carefully washed twice with 1X PBS. The cells were fixed with 4% paraformaldehyde (PFA) and incubated for 5–10 min at RT. After fixing, the cells were again washed with 1× PBS, and the permeabilisation was performed using PBS with 0.1% Triton-X and 0.1% BSA (Bovine Serum Albumin, HiMedia, Mumbai, India). The blocking was performed using 3% BSA for 1 h at RT. After blocking, the cells were incubated with anti-HEV-ORF2 (Dilution, 1:400) antibody against the HEV capsid protein for 1 h at RT. The cells were washed thrice with PBS-T (Tween-20, 0.05%, Sigma Aldrich). The Goat-Anti-Rabbit Alexa Fluor 488 (Thermo Fisher) was used as a secondary antibody, and the cells were incubated for 30 min in the dark. The cells were washed thrice with PBS-T and stained with DAPI (Invitrogen™). […]

Another data set has as its system p6 HEV-Luc Replicon. Put plainly: HEV replicon (p6 HEV-Luc) luciferase assay in Huh7 cells. Type of data set: cell-based. Particulars: Hepatitis E virus, Huh-7, 72 h, read-out: IC50 HEV replicon luciferase activity.
Text: as §3
Following transfection, the cells were incubated with inhibitors for 72 h at 37 °C in a CO2 incubator. […] The cells were then lysed according to the manufacturer’s protocol, and the luminescence was recorded on Tecan Spark® (Tecan Trading AG, Switzerland) multimode plate reader. In replicon, the luminescence was normalised w.r.t to uninfected (0%) and untreated cells (100%).
Background: In antiviral work, replicon cells carry a viral genome segment that copies itself.

The subject of the next data set is Huh7 cells. How it is done: To study the cell viability, Huh7 cells were grown in Dulbecco’s Modified Eagle Medium (DMEM, Gibco™, Life Technologies, Grand Island, NY), supplemented with 10% Foetal Bovine Serum (FBS, Gibco™, Qualified, Brazil origin). Further, Huh7 cells were seeded in a 96-well plate (∼0.7 × 10^4 cells/well) and incubated at 37 °C in a humidified 5% CO2 incubator. […] After 4 d, the MTT (3-dimethylthiazol-2-yl-diphenyl tetrazolium bromide) assay was performed per the manufacturer’s protocol (Himedia Laboratories, Thane, India). Cell viability percentage was calculated by comparing treated cells with untreated cells.

The mark [4] stands for this setting: read-out: IC50 (µM) NTPase activity.

T1 sequence (P33424 960-1204): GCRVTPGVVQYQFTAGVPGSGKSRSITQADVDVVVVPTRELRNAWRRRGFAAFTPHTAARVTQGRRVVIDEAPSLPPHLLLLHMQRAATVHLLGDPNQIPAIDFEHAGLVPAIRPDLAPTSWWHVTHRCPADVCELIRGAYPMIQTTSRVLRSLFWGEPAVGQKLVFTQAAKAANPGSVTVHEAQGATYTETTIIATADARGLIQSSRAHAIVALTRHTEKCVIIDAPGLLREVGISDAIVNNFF

Turning to `COc1cccc2c1C(=O)c1c(O)c3c(c(O)c1C2=O)C[C@@](O)(C(C)=O)C[C@@H]3O[C@H]1C[C@H](N)[C@H](O)[C@H](C)O1` [Daunorubicin HCL, daunorubicin HCL], the figures for the IC50 at HEV helicase [1] (setting [4]) and against HEV helicase [2] were 7.66 µM and 8.25 µM, respectively.
Consider `O=C(O)c1cc(=O)c2c(OCC(O)COc3cccc4oc(C(=O)O)cc(=O)c34)cccc2o1` [Disodium cromoglycate, disodium cromoglycate], for which the IC50 (commonly the concentration at which inhibition is half-maximal) is 14.8 µM on HEV helicase [1] (setting [4]) and 39.8 µM against HEV helicase [2].
Consider `Nc1nc2c(ncn2C2OC(COP(=O)(O)OP(=O)(O)OP(=O)(O)O)C(O)C2O)c(=O)[nH]1` (centres unmarked) [GTP], for which, on HEV helicase [1] (read-out: Km (substrate, NTPase activity), GTP 0 to […], Michaelis-Menten fit), the Km (commonly the concentration of substrate that gives half-maximal velocity) was found to be 350 µM.
Consider `CN1c2c(nc(N)[nH]c2=O)NC[C@@H]1CNc1ccc(C(=O)N[C@@H](CCC(=O)O)C(=O)O)cc1` [Levomefolic acid, 5-methyltetrahydrofolate (levomefolic acid)], for which the concentration for half-maximal inhibition (IC50) on HEV helicase [1] is 3.65 µM; against HEV helicase [2], 13.9 µM.
For the compound `CN(Cc1cnc2nc(N)nc(N)c2n1)c1ccc(C(=O)N[C@@H](CCC(=O)O)C(=O)O)cc1` [Methotrexate], the “HEV replication inhibition (IFA)” value in data set [3] (50 nM Mtx) is approximately 81%. The “fluorescence level (ORF2, IFA)” value in data set [3] (100 nM methotrexate, untreated 100%) is approximately 6%. Also, the inhibition (usually the change of the read-out against control, counted positive when it falls) at 0.1 µM in data set [3] (Hepatitis E virus, Huh-7, read-out: inhibition of HEV replication (IFA)) is approximately 94%. In addition, the IC50 in the data set on p6 HEV-Luc Replicon is 0.0731 ± 0.0127 µM. Moreover, the “Cytotoxicity (MTT assay)” value with Huh7 cells is reported as less than 100 nM.
As for `C[C@]12C=CC(=O)C=C1CC[C@@H]1[C@@H]2[C@@H](O)C[C@@]2(C)[C@H]1CC[C@]2(O)C(=O)CO` [Prednisolone], the IC50 on HEV helicase [1] (setting [4]) was 4.2 µM; on HEV helicase [2], 25.8 µM.

For the origin of these results see PMC11003484 (Journal of Enzyme Inhibition and Medicinal Chemistry, 2023).
